Laboratory results from US20060223996A1, “IL-12 modulatory compounds” (Synta Pharmaceuticals Corp., priority 2004, published 2006).

Columns and labels:
[1] = system: IL-12; test: Murine in vitro assay: IL-12 production in IFNγ/SAC-stimulated splenocytes of immunized Balb/c mice (ELISA); format: cell-based; settings: Mus musculus, Splenocyte; Balb/c splenocytes stimulated with IFNγ and SAC
Protocol: Murine In Vitro Assay. Balb/c mice (Taconic, Germantown, N.Y.) were immunized with Mycobacterium tuberculosis H37Ra (Difco, Detroit, Mich.). The splenocytes were harvested 5 days and prepared in RPMI medium supplemented with 10% FCS and antibiotics in a flat bottom 96-well plate with 1×10^6 cells/well. The splenocytes were then stimulated with a combination of IFNγ (60 ng/mL) and SAC (0.025%) (LPS (20 μg/mL can be used instead of SAC)) in the presence of a test compound. Cell-free supernatants were taken 24 h later for the measurement of cytokines. The preparation of compound and the assessment of cell viability were carried out as described above. […] Mouse IL-12 p70, IL-10, IL-1β, and TNFα are measured using ELISA kits from Endogen, according to the manufacturer's instructions.

[2] = system: IL-12; test: Human in vitro assay: inhibition of IL-12 production in IFNγ/LPS- or IFNγ/SAC-stimulated human PBMC or THP-1 cells (ELISA); format: cell-based; settings: read-out: IC50 Range (representative in vitro IC50 data)
Summary of the method: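 Sandwich ELISA for IL-12 (p70, p40) on supernatants collected 18 h after stimulation gave IC50 values; MTS monitored viability. THP-1 cells: IFNγ 100 U/mL priming 22 h, SAC 0.025%. PBMC: IFNγ 30 U/mL for 22 h plus LPS 1 μg/mL, or IFNγ 100 U/mL plus SAC 0.01%. Final DMSO 0.25%.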

[3] = system: adjuvant arthritis (AA); test: Treatment of adjuvant arthritis in rats; format: in vivo, rat; settings: female Lewis rats, oral once a day for 7 days (day 7-14) after MTB induction, vs vehicle
Protocol: Treatment of adjuvant arthritis in rats: Adjuvant arthritis (AA) was induced in female Lewis rats by the intracutaneous injection (base of the tail) of 0.1 mL of a 10 mg/mL bacterial suspension made from ground, heat-killed Mycobacterium tuberculosis (MTB) H37Ra suspended in incomplete Freund's adjuvant. Rats were given Compound 1 or vehicle orally once a day for 7 days (day 7-14), starting day 7 after mycobacterium induction. The development of polyarthritis was monitored daily by macroscopic inspection and assignment of an arthritis index to each animal, during the critical period (days 10 to 25 post-immunization).
The intensity of polyarthritis was scored according to the following scheme: (a) Grade each paw from 0 to 3 based on erythema, swelling, and deformity of the joints: 0 for no erythema or swelling; 0.5 if swelling is detectable in at least one joint; 1 for mild swelling and erythema; 2 for swelling and erythema of both tarsus and carpus; and 3 for ankylosis and bony deformity. Maximum score for all 4 paws was thus 12. […]
Experiments with the AA model were repeated four times. […] The arthritis score used in this model was a reflection of the inflammatory state of the structures monitored and the results therefore show the ability of the test compound to provide relief for this aspect of the pathology.

## Cc1[nH]c2ccc(NC(=O)c3cc(OCCN)nc(N4CCOCC4)n3)cc2c1C [Compound 273, 6-(2-Amino-ethoxy)-2-morpholin-4-yl-pyrimidine-4-carboxylic acid (2,3-dimethyl-1H-indol-5-yl)-amide]
[1]
  IC50: 1250 nM
[2]
  IC50: < 1000 nM

## Cc1[nH]c2ccc(NC(=O)c3cc(OCCN4CCOCC4)nc(N4CCOCC4)n3)cc2c1C [Compound 1, 2-Morpholin-4-yl-6-(2-morpholin-4-yl-ethoxy)-pyrimidine-4-carboxylic acid (2,3-dimethyl-1H-indol-5-yl)-amide]
[3]
  development of polyarthritis: delayed the development of polyarthritis in a dose-dependent manner
[3]; FIG. 1
  arthritic score (arthritic index): reduced the arthritic score
[2]
  IC50: < 1000 nM

## Cc1[nH]c2ccc(NC(=O)c3cc(N4CCC(O)CC4)cc(N4CCOCC4)n3)cc2c1C [Compound 171, 4-Hydroxy-6′-morpholin-4-yl-3,4,5,6-tetrahydro-2H-[1,4′]bipyridinyl-2′-carboxylic acid (2,3-dimethyl-1H-indol-5-yl)-amide]
[2]
  IC50: < 1000 nM

## O=C(Nc1nc(OCCc2ccccn2)cc(N2CCOCC2)n1)c1ccncc1 [Compound 76, N-[4-Morpholin-4-yl-6-(2-pyridin-2-yl-ethoxy)-pyrimidin-2-yl]-isonicotinamide]
[2]
  IC50: ≥ 1000 nM

## Cc1cccc(NC(=O)Nc2cc(N3CCOCC3)nc(OCCc3ccccn3)n2)c1 [Compound 68, 1-[6-Morpholin-4-yl-2-(2-pyridin-2-yl-ethoxy)-pyrimidin-4-yl]-3-m-tolyl-urea]
[2]
  IC50: ≥ 1000 nM

## CCc1c(C)[nH]c2ccc(NC(=O)Nc3cc(NCCN4CCOCC4)nc(N4CCOCC4)n3)cc12 [Compound 270, 1-(3-ethyl-2-methyl-1H-indol-5-yl)-3-(2-morpholino-6-(2-morpholinoethylamino)pyrimidin-4-yl)urea]
[2]
  IC50: < 1000 nM

## Cc1cccc(N(C)C(=O)Nc2cc(N3CCOCC3)nc(OCCc3ccccn3)n2)c1 [Compound 69, 1-Methyl-3-[6-morpholin-4-yl-2-(2-pyridin-2-yl-ethoxy)-pyrimidin-4-yl]-1-m-tolyl-urea]
[2]
  IC50: ≥ 1000 nM

## Cc1[nH]c2ccc(NC(=O)c3cc(N4CCN(CCO)CC4)nc(N4CCOCC4)n3)cc2c1C [Compound 94, 6-[4-(2-Hydroxy-ethyl)-piperazin-1-yl]-2-morpholin-4-yl-pyrimidine-4-carboxylic acid (2,3-dimethyl-1H-indol-5-yl)-amide]
[2]
  IC50: < 1000 nM

## COCCN(C)c1cc(C(=O)Nc2cccc(C(=O)c3ccccc3)c2)nc(N2CCOCC2)n1 [Compound 232, 6-[(2-Methoxy-ethyl)-methyl-amino]-2-morpholin-4-yl-pyrimidine-4-carboxylic acid (3-benzoyl-phenyl)-amide]
[2]
  IC50: ≥ 1000 nM

## Cc1ccc(NC(=O)Nc2cc(N3CCOCC3)nc(OCCN3CCOCC3)n2)cc1C [Compound 122, 1-(3,4-Dimethyl-phenyl)-3-[6-morpholin-4-yl-2-(2-morpholin-4-yl-ethoxy)-pyrimidin-4-yl]-urea]
[2]
  IC50: ≥ 1000 nM

## CCCCN(CCCC)c1cc(C(=O)Nc2ccc3[nH]c(C)c(C)c3c2)nc(N2CCOCC2)n1 [Compound 92, 6-Dibutylamino-2-morpholin-4-yl-pyrimidine-4-carboxylic acid (2,3-dimethyl-1H-indol-5-yl)-amide]
[2]
  IC50: < 1000 nM
